Test results from patent US6413996B2, “Diaminocyclobutene-3,4-dione derivatives, their preparation and use” (Neurosearch A/S, priority 1998, dated 2002).

Assays:
normal erythrocytes = assay: K+-flux estimated by measuring extracellular K+-concentration vs time; type: cell-based; conditions: 10 μM
Excerpt: Deoxygenation induced permeability increases of sickle cells were estimated by measuring the extracellular K^+-concentration vs time. […] The K^+ flux from oxygenated sickle erythrocytes was 2-3 times higher than from normal erythrocytes and these fluxes was accelerated 4 - 8 times upon deoxygenation.

[1] = tested on: chloride channels in homozygoteous sickle cell erythrocytes; assay: Cl- conductance (GCl) in suspensions of sickle cell erythrocytes; type: cell-based; conditions: oxygenated as well as deoxygenated homozygoteous sickle cell erythrocytes
Excerpt: (§1) The compounds of the present invention are potent blockers of chloride channels in normal as well as sickle cell erythrocytes.
(§2) All dose-response experiments were therefore performed by concomitant measurements of conductive netfluxes of Cl^− (JCl) and membrane potentials (Vm) in suspensions of erythrocytes (Bennekou, P. and Christophersen, P. (1986), Flux ratio of Valinomycin - Mediated K^+ Fluxes across the Human Red Cell Membrane in the presence of the Protronophore CCCP. J. Membrane Biol. 93, 221-227. ). The membrane Cl^−conductances (GCl) were calculated by the following equation (Hodgkin, A. L. and Huxley, A. F. (1952) The components of membrane conductance in the giant axon of Loligo. J. Physiol. Lond. 116, 449-472): [formula]
(§3) where F is the Faraday constant, ECl is the Nernst potential for the Cl-ion.

[2] = tested on: chloride channels in normal erythrocytes; assay: Cl- conductance (GCl) from concomitant measurement of conductive Cl- netfluxes and membrane potentials in erythrocyte suspensions; type: cell-based, human; conditions: suspension of normal erythrocytes
Excerpt: as §1, §2, §3

[3] = tested on: vacuolar-type proton pump; conditions: cited from earlier work
[4] = tested on: osteoclast bone resorbtion; conditions: in vitro (Ohba et al, 1996); cited from earlier work
bone degration = conditions: in vivo, growing young rats (Keeling et al, 1997); cited from earlier work

With `O=C(Nc1cccc(C(F)(F)F)c1)Nc1ccccc1C(=O)O` [3-Trifluoromethylphenyl-2-carboxyphenyl urea] the “sensitivity of K+-fluxes to compound” value (normal erythrocytes) was “insensitive”, the “block of GCl from sickle cell erythrocytes” value [1] was “equipotently blocked” and the “block of GCl” value [2] was “more than 95%”. It also gave a Kd ([2]; read-out: KD-value for block of GCl) of 1300 nM.
In the case of `COc1ccc2[nH]c([S+]([O-])Cc3ncc(C)c(OC)c3C)nc2c1` (stereo not drawn) [omeprazol], the “block of the proton pump” value [3] is given as “ineffective”.
For `CC(=O)Nc1nnc(S(N)(=O)=O)s1` [acetacolamide], the “effect on bone resorbtion in pit formation assay” value [4] is given as “effective”.
For `CO/C1=C\C(C)=C\[C@@H](C)[C@@H](O)[C@@H](C)C/C(C)=C/C=C/[C@H](OC)[C@@H]([C@@H](C)[C@@H](O)[C@H](C)[C@@]2(O)C[C@@H](O)[C@H](C)[C@@H](C(C)C)O2)OC1=O` [bafilomycin A1], the “effect on bone degration” value (bone degration) is listed as “depresses bone degration”, the “block of the proton pump” value [3] is listed as “extremely potent, reversible inhibitor” and the “effect on bone resorbtion in pit formation assay” value [4] is listed as “completely eliminates bone resorbtion”.
